Reference: article PMC3914206

Assays:
Assay type in all cases: binding
Details in all cases: Compound Concentration 10 µM
panel of 442 kinases [1] = molecular target: T1, panel of 442 kinases (Plasmodium falciparum, UniProt P62344)
T1 construct: purchased KINOMEscan
From the text: (§1) We assessed the selectivity of members of this scaffold using the KINOMEscan methodology across a near comprehensive panel of 442 kinases [[18,27]].

panel of 442 kinases [2] = molecular target: T2, panel of 442 kinases (Homo sapiens, UniProt P11362)
T2 construct: purchased KINOMEscan
From the text: as §1

panel of 442 kinases [3] = molecular target: T3, panel of 442 kinases (Homo sapiens, UniProt P57058)
T3 construct: purchased KINOMEscan
T3 sequence (P57058 1-714): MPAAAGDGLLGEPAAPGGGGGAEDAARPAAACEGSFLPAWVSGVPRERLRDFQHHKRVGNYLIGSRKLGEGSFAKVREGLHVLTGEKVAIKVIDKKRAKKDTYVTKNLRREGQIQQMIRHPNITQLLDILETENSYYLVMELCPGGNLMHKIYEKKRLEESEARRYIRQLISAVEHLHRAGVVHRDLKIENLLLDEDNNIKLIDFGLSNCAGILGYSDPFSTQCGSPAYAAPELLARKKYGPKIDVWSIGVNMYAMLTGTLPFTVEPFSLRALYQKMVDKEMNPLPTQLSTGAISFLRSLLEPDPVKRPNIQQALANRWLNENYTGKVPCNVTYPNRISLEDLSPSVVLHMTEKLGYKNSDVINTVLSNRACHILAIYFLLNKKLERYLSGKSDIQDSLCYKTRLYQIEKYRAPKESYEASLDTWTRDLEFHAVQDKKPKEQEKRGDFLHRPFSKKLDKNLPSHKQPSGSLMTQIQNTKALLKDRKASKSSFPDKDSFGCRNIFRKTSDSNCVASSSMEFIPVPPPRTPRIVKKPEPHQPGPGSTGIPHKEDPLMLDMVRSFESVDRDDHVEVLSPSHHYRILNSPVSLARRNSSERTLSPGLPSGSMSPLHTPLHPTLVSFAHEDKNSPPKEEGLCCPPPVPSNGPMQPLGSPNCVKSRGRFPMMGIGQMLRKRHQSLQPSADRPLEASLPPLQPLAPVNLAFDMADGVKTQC
From the text: as §1

T2 sequence (P11362 22-822): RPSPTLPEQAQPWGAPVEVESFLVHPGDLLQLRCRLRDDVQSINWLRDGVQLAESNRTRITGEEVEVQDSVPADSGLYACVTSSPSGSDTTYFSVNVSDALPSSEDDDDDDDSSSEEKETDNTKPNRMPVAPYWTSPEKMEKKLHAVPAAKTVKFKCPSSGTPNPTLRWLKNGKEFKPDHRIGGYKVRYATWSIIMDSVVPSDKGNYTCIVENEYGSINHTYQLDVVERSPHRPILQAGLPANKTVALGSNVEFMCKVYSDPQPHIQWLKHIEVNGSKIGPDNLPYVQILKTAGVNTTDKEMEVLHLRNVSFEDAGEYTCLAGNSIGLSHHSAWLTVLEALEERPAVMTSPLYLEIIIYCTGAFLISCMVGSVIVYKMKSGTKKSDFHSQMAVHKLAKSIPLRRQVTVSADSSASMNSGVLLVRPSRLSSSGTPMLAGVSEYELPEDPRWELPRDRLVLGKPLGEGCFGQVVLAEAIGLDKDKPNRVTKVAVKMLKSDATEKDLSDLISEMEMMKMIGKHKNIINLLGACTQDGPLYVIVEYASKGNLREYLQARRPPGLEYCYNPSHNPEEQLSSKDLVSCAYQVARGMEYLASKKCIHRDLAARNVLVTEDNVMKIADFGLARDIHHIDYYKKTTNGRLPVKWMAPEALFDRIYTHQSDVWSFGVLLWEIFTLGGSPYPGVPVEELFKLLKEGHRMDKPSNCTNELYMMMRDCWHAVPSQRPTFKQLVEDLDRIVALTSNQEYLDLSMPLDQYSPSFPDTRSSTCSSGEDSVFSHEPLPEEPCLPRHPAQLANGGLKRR
T1 sequence (P62344 whole entry): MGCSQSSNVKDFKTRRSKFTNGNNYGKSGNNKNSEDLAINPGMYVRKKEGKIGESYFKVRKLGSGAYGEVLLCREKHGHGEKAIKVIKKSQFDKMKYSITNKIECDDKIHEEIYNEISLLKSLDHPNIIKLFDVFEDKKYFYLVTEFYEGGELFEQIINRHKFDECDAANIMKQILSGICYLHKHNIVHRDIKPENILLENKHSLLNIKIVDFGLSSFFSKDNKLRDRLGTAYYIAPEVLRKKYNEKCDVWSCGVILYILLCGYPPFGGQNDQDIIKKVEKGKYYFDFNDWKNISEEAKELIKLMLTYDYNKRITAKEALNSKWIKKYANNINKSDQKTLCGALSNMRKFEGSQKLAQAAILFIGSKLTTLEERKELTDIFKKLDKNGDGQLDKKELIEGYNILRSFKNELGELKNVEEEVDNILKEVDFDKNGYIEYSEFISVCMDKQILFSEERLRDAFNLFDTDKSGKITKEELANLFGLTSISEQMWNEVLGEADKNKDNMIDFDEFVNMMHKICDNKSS

## COc1cc(C(=O)N2CCC(N3CCN(C)CC3)CC2)ccc1Nc1ncc2c(n1)N(C)c1ccccc1C(=O)N2C [15 (LRRK2-IN-1)]
Panel of 442 kinases [1]
  KINOMEscan: PFCDPK1(P.falciparum): 100
Panel of 442 kinases [2]
  KINOMEscan: FGFR1: 86
Panel of 442 kinases [3]
  KINOMEscan: HUNK: 100

## COc1cc(C(=O)N2CCC(N3CCN(C)CC3)CC2)ccc1Nc1ncc2c(n1)N1CCc3cccc(c31)C(=O)N2C [Compound 24]
Panel of 442 kinases [2]
  KINOMEscan: FGFR1: 83

## COc1cc(C(=O)N2CCC(N3CCN(C)CC3)CC2)ccc1Nc1ncc2c(n1)N(C1CCCC1)c1ccccc1C(=O)N2C [Compound 25, 11-cyclopentyl-2-((2-methoxy-4-(4-(4-methylpiperazin-1-yl)piperidine-1-carbonyl)phenyl)amino)-5-methyl-5H-benzo[e]pyrimido[5,4-b][1,4]diazepin-6(11H)-one]
Panel of 442 kinases [1]
  KINOMEscan: PFCDPK1(P.falciparum): 91
Panel of 442 kinases [2]
  KINOMEscan: FGFR1: 100
Panel of 442 kinases [3]
  KINOMEscan: HUNK: 100

## CCOc1cc(C(=O)N2CCC(N3CCN(C)CC3)CC2)ccc1Nc1ncc2c(n1)N(C1CCCC1)c1ccccc1C(=O)N2C [Compound 26]
Panel of 442 kinases [1]
  KINOMEscan: PFCDPK1(P.falciparum): 100
Panel of 442 kinases [2]
  KINOMEscan: FGFR1: 100
Panel of 442 kinases [3]
  KINOMEscan: HUNK: 53
